This note sets out measurements from ChEMBL document CHEMBL1201862, “PubChem BioAssay data set” (2004).

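The compound was tested at five concentrations on cells cultured in 96-well plates, with a 48-hour exposure period. GI50 marks 50% less growth.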 Active and inactive are the calls of the source. No stated cut-off is given here; in the data, active = GI50 up to about 1.1 µM and inactive = higher.

Among the test systems are ACHN; COLO 205; HCT-116; HOP-92; Malme-3M; NCI-H23; NCI-H460; OVCAR-4; OVCAR-5; SF-268; SK-MEL-2; SK-OV-3; T47D; TK-10; UACC-257; UO-31; CAKI-1; HL-60; NCI-H522.
Test in all cases: NCI anticancer screen, dose series, 48 h

As to `CC(O)/C=C/C1OC(=O)CC1Nc1ccc(C=O)cc1` (centres undefined), the GI50 in the test with ACHN is > 100 µM (inactive); in the test with COLO 205 it was 42.9 µM (inactive); in the test with HCT-116 it was > 100 µM (inactive); in the test with HOP-92, 15.3 µM (inactive); in the test with Malme-3M it was > 100 µM (inactive); in the test on NCI-H23, 59 µM (inactive). For the same compound, the GI50 was 11.2 µM (inactive) in the test on NCI-H460; > 100 µM (inactive) with OVCAR-4; > 100 µM (inactive) with OVCAR-5; > 100 µM (inactive) with SF-268; 23.3 µM (inactive) in the test on SK-MEL-2; > 100 µM (inactive) in the test on SK-OV-3. Moreover, the GI50 in the test with T47D was 60.7 µM (inactive); in the test on TK-10, > 100 µM (inactive); in the test on UACC-257, 48.2 µM (inactive); in the test with UO-31 it was 51.2 µM (inactive).

`O=c1ccn(CC2(CO)CC(Cc3ccccc3)C2)c(=O)[nH]1` (centres undefined): the GI50 with ACHN, with CAKI-1, with COLO 205, with HCT-116, in the test with HL-60 and in the test with Malme-3M was > 100 µM (inactive) throughout. Further, the GI50 in the test on NCI-H23, with NCI-H460, in the test on NCI-H522, in the test with OVCAR-4, in the test on OVCAR-5 and with SF-268 was > 100 µM (inactive) in each case. The GI50 in the test on SK-MEL-2, in the test with SK-OV-3, in the test with T47D, with TK-10, with UACC-257 and in the test on UO-31 was > 100 µM (inactive) in each case.

As to `COc1ccc(C(OC(=O)[C@H](O[Si](C)(C)C(C)(C)C)[C@@H](NC(=O)c2ccccc2)c2ccccc2)c2ccc(OC)cc2)cc1`, the GI50 in the test on ACHN, in the test on CAKI-1, in the test with COLO 205, in the test on HCT-116, in the test on HOP-92 and with Malme-3M was > 100 µM (inactive) each time. Besides, the GI50 in the test with NCI-H23, in the test on NCI-H460, in the test on NCI-H522, in the test on OVCAR-4, with OVCAR-5 and in the test on SF-268 was > 100 µM (inactive) throughout. In addition, the GI50 in the test with SK-MEL-2, with T47D, in the test on TK-10, in the test with UACC-257 and in the test on UO-31 was > 100 µM (inactive) in each case.

For `Nc1ncnc2c1ncn2CC(OCP(=O)(O)O)Oc1ccccc1` (centres undefined), the GI50 with ACHN, with CAKI-1, in the test with COLO 205, with HCT-116, in the test with HOP-92 and with OVCAR-4 was > 100 µM (inactive) in each case. Besides, the GI50 in the test with OVCAR-5, with SF-268, with SK-MEL-2, in the test with SK-OV-3, in the test with T47D and with TK-10 was > 100 µM (inactive) each time. The GI50 in the test with UACC-257 and in the test on UO-31 was > 100 µM (inactive) each time.

In the case of `C=C1OC(=O)[C@]2([C@@H](/C=C/C)C=CC(=O)[C@H]2O)[C@@H]1O`, the GI50 in the test with ACHN, in the test on CAKI-1, in the test with COLO 205, in the test with HCT-116, with HL-60 and with Malme-3M was > 100 µM (inactive) in each case. Besides, the GI50 in the test with NCI-H23, in the test with NCI-H460, in the test on NCI-H522, in the test with OVCAR-4, in the test on OVCAR-5 and in the test with SF-268 was > 100 µM (inactive) each time. Also, the GI50 in the test on SK-MEL-2, with SK-OV-3, in the test on T47D, with TK-10, in the test with UACC-257 and in the test on UO-31 was > 100 µM (inactive) in each case.

With `COC(=O)C1CC2(C)C=CC1N(C(=O)OCc1ccccc1)C2` (centres undefined), the GI50 in the test on ACHN is > 100 µM (inactive); with CAKI-1 it was > 100 µM (inactive); with COLO 205 it was > 100 µM (inactive); with HCT-116 it was 40.8 µM (inactive); in the test on HL-60 it was 24.2 µM (inactive); in the test with Malme-3M it was > 100 µM (inactive). For the same compound, the GI50 with NCI-H23 was 59.3 µM (inactive); in the test with NCI-H460, > 100 µM (inactive); with NCI-H522 it was 30.6 µM (inactive); with OVCAR-4 it was 40 µM (inactive); in the test on OVCAR-5, > 100 µM (inactive); in the test with SF-268, > 100 µM (inactive). The GI50 with SK-MEL-2 was > 100 µM (inactive); in the test with SK-OV-3 it was 27.7 µM (inactive); with T47D, 40 µM (inactive); in the test with TK-10, > 100 µM (inactive); with UACC-257, 65.3 µM (inactive); in the test with UO-31, 69.5 µM (inactive).

With `CC(C#N)Nc1ccc(Oc2ccc(C(C)(C)c3ccc(Oc4ccc(NC(C)C#N)cc4)cc3)cc2)cc1` (centres undefined), the GI50 in the test with ACHN was > 100 µM (inactive); in the test on CAKI-1, > 100 µM (inactive); in the test on COLO 205, > 100 µM (inactive); in the test with HCT-116, 30.7 µM (inactive); with HOP-92, 31.4 µM (inactive); in the test with Malme-3M it was > 100 µM (inactive). The GI50 in the test on NCI-H23 is 40.9 µM (inactive); with NCI-H460, > 100 µM (inactive); in the test with OVCAR-4, > 100 µM (inactive); in the test on OVCAR-5 it was > 100 µM (inactive); in the test on SF-268 it was 86.5 µM (inactive); with SK-MEL-2, > 100 µM (inactive). Also, the GI50 with SK-OV-3 is > 100 µM (inactive); in the test with T47D it was 0.409 µM (active); in the test on TK-10, > 100 µM (inactive); in the test on UACC-257, 8.85 µM (inactive); with UO-31 it was 5.08 µM (inactive).

In the case of `CC(=O)N1C(Nc2cnc3ccccc3c2)CCN1c1ccccc1` (centres undefined), the GI50 is 9.57 µM (inactive) in the test with ACHN; > 10 µM (inactive) with CAKI-1; > 10 µM (inactive) with COLO 205; > 10 µM (inactive) in the test with HCT-116; 6.37 µM (inactive) in the test on HL-60; > 10 µM (inactive) in the test with Malme-3M. Moreover, the GI50 in the test with NCI-H23, with NCI-H460, with NCI-H522, with OVCAR-4, in the test with OVCAR-5 and in the test on SF-268 was > 10 µM (inactive) in each case. Also, the GI50 with SK-MEL-2, in the test with SK-OV-3, in the test with T47D, with TK-10, in the test with UACC-257 and in the test on UO-31 was > 10 µM (inactive) in each case.

In the case of `COc1cccc(C2CC(=O)c3cc(N4CCCC4)ccc3N2)c1` (centres undefined), the GI50 was 0.0832 µM (active) in the test with ACHN; 0.0561 µM (active) in the test on CAKI-1; 0.0365 µM (active) in the test on COLO 205; 0.0251 µM (active) in the test with HCT-116; 0.348 µM (active) with HOP-92; 0.0265 µM (active) in the test on NCI-H23. Besides, the GI50 is 0.0402 µM (active) in the test with NCI-H460; 0.0177 µM (active) in the test on NCI-H522; 23.3 µM (inactive) in the test on OVCAR-4; 0.0608 µM (active) in the test on OVCAR-5; 0.0692 µM (active) in the test on SF-268; 0.0296 µM (active) with SK-MEL-2. Besides, the GI50 in the test with SK-OV-3 was 0.043 µM (active); in the test with T47D it was 56 µM (inactive); in the test with TK-10, 1.21 µM (inactive); in the test on UACC-257 it was 0.01 µM (active); in the test on UO-31, 0.0735 µM (active).

As to `CC1=C(C(=O)OC(C)C)C(c2ccccc2C(F)(F)F)C(C(=O)OC(CO[N+](=O)[O-])CO[N+](=O)[O-])=C(C)N1` (centres undefined), the GI50 was 4.79 µM (inactive) with ACHN; 9.98 µM (inactive) with CAKI-1; 10.2 µM (inactive) in the test with COLO 205; 3.76 µM (inactive) with HCT-116; 95.5 µM (inactive) with HL-60; 12.2 µM (inactive) with Malme-3M. Further, the GI50 in the test with NCI-H23 is 12.7 µM (inactive); in the test on NCI-H460, 5.19 µM (inactive); with NCI-H522 it was 3.35 µM (inactive); in the test with OVCAR-4, 5.3 µM (inactive); in the test with OVCAR-5, 19.3 µM (inactive); in the test with SF-268, 8.63 µM (inactive). Moreover, the GI50 is 14.1 µM (inactive) with SK-MEL-2; 11.2 µM (inactive) in the test on SK-OV-3; 3.83 µM (inactive) in the test on T47D; 23.9 µM (inactive) in the test on TK-10; 6.34 µM (inactive) with UACC-257; 1.95 µM (inactive) in the test with UO-31.

With `CN(C)/N=N/c1nc2c(c(=O)n(C)c(=O)n2C)n1CC1CO1` (centres undefined), the GI50 in the test on ACHN is 10.8 µM (inactive); in the test with CAKI-1 it was 13.9 µM (inactive); with COLO 205 it was 14.3 µM (inactive); in the test on HCT-116 it was 11.7 µM (inactive); in the test with HL-60, 4 µM (inactive); in the test with Malme-3M it was 9.18 µM (inactive). In addition, the GI50 is 12.2 µM (inactive) with NCI-H23; 10.1 µM (inactive) in the test with NCI-H460; 14.1 µM (inactive) with NCI-H522; 15.7 µM (inactive) in the test on OVCAR-4; 32 µM (inactive) with OVCAR-5; 11.6 µM (inactive) in the test with SF-268. The GI50 in the test with SK-MEL-2 was 10.7 µM (inactive); with SK-OV-3, 17.2 µM (inactive); with T47D, 18.4 µM (inactive); with TK-10 it was 11.9 µM (inactive); in the test on UACC-257 it was 16.6 µM (inactive); with UO-31, 14.5 µM (inactive).
